Results from US11591634B1, “Forecasting bacterial survival-success and adaptive evolution through multiomics stress-response mapping and machine learning” (priority 2019, dated 2023).
Values after ≈ are worked out from the molar mass of the structure shown.

How the values were obtained:
Format in all cases: cell-based, Streptococcus pneumoniae
[1] = system: S. pneumoniae strain TIGR4 (T4); test: Determination of relative minimal inhibitory concentration (MIC); conditions: lowest concentration that abolishes bacterial growth, 16 hours, 37° C.; for MIC: Streptococcus pneumoniae, read-out: 1x MIC for T4
Protocol: (§1) Each concentration was tested in triplicate. Growth was monitored on a Tecan Infinite 200 PRO plate reader at 37° C. for 16 hours. MIC is determined as the lowest concentration that abolishes bacterial growth (FIGS. 6A-6H).

[2] = system: S. pneumoniae T4; test: Fitness outcome under antibiotic exposure (growth curve assay); conditions: for Fitness: S. pneumoniae T4 wild-type, 1xMIC antibiotic, growth curves; for Survive (real survival outcome): strain T4, Adapted FALSE
Protocol: (§2) To test whether a gene-panel model can be trained that predicts fitness for many different conditions, a large RNA-Seq dataset was generated for the human pathogen Streptococcus pneumoniae. […] These include cell wall synthesis inhibitors (CWSI), DNA synthesis inhibitors (DSI), protein synthesis inhibitors (PSI) and RNA synthesis inhibitors ((RSI); FIG. 1A, Tables 1 & 2). Each strain was exposed to each antibiotic for 2 to 4 hours and cells were harvested for RNA-Seq at various time points. As T4 and 19F are susceptible to most antibiotics used, the transcriptional profiles in the presence of antibiotics mostly represent cases of low fitness (FIG. 1A, sensitive strain, 1xMICWT). In order to find patterns that differentiate fitness outcomes, adapted strains were generated with increased fitness in the presence of antibiotics by serial passaging wildtype T4 and 19F in the presence of increasing amounts of antibiotics. Four independent adapted populations for each strain were selected on individual antibiotics. These adapted strains could grow in the presence of antibiotic at 1.5xMIC of the wildtype strain, albeit with a small growth defect (FIGS. 6A-6E & 6F). In parallel, RNA-Seq was performed on S. pneumoniae strains D39 and T4 in a chemically defined medium, and media from which either uracil, Glycine or L-Valine was removed, which are essential for D39 but not T4. This enabled the potential identification of a common stress signature that is shared between antibiotic exposure and nutrient deprivation, and across multiple strains. Lastly, D39 was adapted to grow in the absence of each individual nutrient, after which RNA-Seq was repeated for adapted clones (Table 1 lists all 24 strains, 67 populations and 267 RNA-Seq experiments).
(§3) S. pneumoniae strain TIGR4 (T4; NC_003028.3) is a serotype 4 strain originally isolated from a patient^3,4, Taiwan-19F (19F; NC_012469.1) is a multi-drug resistant strain^5,6 and D39 (NC_008533) is a commonly used serotype 2 strain originally isolated from a patient about 90 years ago^7. Strain PG1 and PG19 were isolated from adults with pneumococcal bacteremia infection and included in the Pneumococcal Bacteremia Collection Nijmegen (PBCN)^8. All S. pneumoniae gene numbers refer to the T4 genome. Correspondence between homologous genes among S. pneumoniae strains and gene function annotations are described herewith. Escherichia coli strain AR538, Klebsiella pneumoniae strain AR497 and Salmonella enterica subsp Typhimurium strain AR635 were clinical isolates obtained from the Center of Disease Control (CDC). Staphylococcus aureus strain MN6 was kindly provided by George Sakoulas (Center of Immunity, Infection & Inflammation, UCSD School of Medicine). Unless otherwise specified, S. pneumoniae strains were cultivated in Todd Hewitt medium with 5% yeast extract (THY) with 5 μL/mL oxyrase (Oxyrase, Inc) or on sheep's blood agar plates (Northeastern Laboratories) at 37° C. with 5% CO2. A. baumannii, E. coll. K. pneumoniae, S. aureus and S. Typhimurium were cultured in Mueller Hinton broth II (Sigma) at 37° C. with 220 rpm constant shaking. Tn-Seq and RNA-Seq experiments of S. pneumoniae under nutrient-depletion and antibiotic conditions were performed in chemically defined medium (CDM)^9 and semi-defined minimal medium (SDMM)^10, respectively. RNA-Seq experiments for A. baumannii, S. Typhimurium, E. coll. K. pneumoniae, and S. aureus were performed in Mueller Hinton broth II. Single strain growth assays were performed at least three times using 96-well plates by taking OD600 measurements on a Tecan Infinite 200 PRO plate reader.

[3] = system: S. pneumoniae strain Taiwan-19F (19F); test: Determination of relative minimal inhibitory concentration (MIC); conditions: for MIC: Streptococcus pneumoniae, 16 h, read-out: 1x MIC for 19F
Protocol: as §1

[4] = system: S. pneumoniae strain D39; test: Real survival outcome (fitness outcome) under nutrient condition; conditions: strain D39, Adapted FALSE, Concentration NA
[5] = system: S. pneumoniae 19F; test: Fitness outcome under antibiotic exposure (growth curve assay); conditions: for Fitness: S. pneumoniae 19F wild-type, growth curves; for Survive (real survival outcome): strain 19F, Adapted FALSE
Protocol: as §2, §3

[6] = system: antibiotic-adapted S. pneumoniae 19F (a19F); test: as above; conditions: for Fitness: a19F, 19F adapted to the respective antibiotic, 1xMIC and 1.5-2xMIC, growth curves; for Survive (real survival outcome): strain 19F, Adapted TRUE
Protocol: as §2, §3
(§4) D39 was used as the parental strain in nutrient-depletion evolution experiments; T4 and 19F were used as parental strains in antibiotic evolution experiments. […] Four replicate populations were serial passaged in CDM or SDMM as controls to identify background adaptations in nutrient or antibiotic adaptation experiments, respectively. […]

[7] = system: antibiotic-adapted S. pneumoniae T4 (aT4); test: as above; conditions: for Survive (real survival outcome): strain T4, Adapted TRUE
Protocol: as §2, §3, §4

[8] = system: adapted S. pneumoniae strain D39; test: Real survival outcome (fitness outcome) under nutrient condition, adapted strain; conditions: strain D39, Adapted TRUE, Concentration NA

Row | Compound | MIC [1] | Fitness [2] | Survive (real survival outcome) ([2]; Concentration NA) | MIC [3] | also measured
1 | CO/N=C(\C(=O)N[C@@H]1C(=O)N2C(C(=O)O)=C(CSc3nc(=O)c(=O)[nH]n3C)CS[C@H]12)c1csc(N)n1 [Ceftriaxone, ceftriaxone] | 0.007 µg/mL (≈ 0.0126 µM) | Low | FALSE | – | –
2 | CO[C@H]1/C=C/O[C@@]2(C)Oc3c(C)c(O)c4c(O)c(c(/C=N/N5CCN(C)CC5)c(O)c4c3C2=O)NC(=O)/C(C)=C\C=C\[C@H](C)[C@H](O)[C@@H](C)[C@@H](O)[C@@H](C)[C@H](OC(C)=O)[C@@H]1C [Rifampicin, rifampicin] | 0.035 µg/mL (≈ 0.0425 µM) | – | – | 0.035 µg/mL (≈ 0.0425 µM) | –
3 | COc1c(N2C[C@@H]3CCCN[C@@H]3C2)c(F)cc2c(=O)c(C(=O)O)cn(C3CC3)c12 [Moxifloxacin, moxifloxacin] | 0.45 µg/mL (≈ 1.12 µM) | – | – | – | –
4 | NCC(=O)O [GLY] | – | – | TRUE | – | Survive (real survival outcome) [4]: FALSE
5 | CC(=O)NC[C@H]1CN(c2ccc(N3CCOCC3)c(F)c2)C(=O)O1 [Linezolid, linezolid] | 0.5 µg/mL (≈ 1.48 µM) | Low | FALSE | – | –
6 | CN[C@H](CC(C)C)C(=O)N[C@H]1C(=O)N[C@@H](CC(N)=O)C(=O)N[C@H]2C(=O)N[C@H]3C(=O)N[C@H](C(=O)N[C@H](C(=O)O)c4cc(O)cc(O)c4-c4cc3ccc4O)[C@H](O)c3ccc(c(Cl)c3)Oc3cc2cc(c3O[C@@H]2O[C@H](CO)[C@@H](O)[C@H](O)[C@H]2O[C@H]2C[C@](C)(N)[C@H](O)[C@H](C)O2)Oc2ccc(cc2Cl)[C@H]1O [Vancomycin, vancomycin] | 0.24 µg/mL (≈ 0.166 µM) | Low | – | 0.24 µg/mL (≈ 0.166 µM) | Fitness [5]: Low; Survive (real survival outcome) ([5]; Concentration L (low)): FALSE; Survive (real survival outcome) ([2]; Concentration L (low)): FALSE; Fitness [6]: High; Survive (real survival outcome) ([6]; Concentration H (high)): TRUE; Survive (real survival outcome) ([6]; Concentration L (low)): TRUE; Fitness ([7]; aT4, T4 adapted to the respective antibiotic, 1xMIC and 1.5-2xMIC, growth curves): High; Survive (real survival outcome) ([7]; Concentration H (high)): TRUE; Survive (real survival outcome) ([7]; Concentration L (low)): TRUE
7 | C[C@H]1COc2c(N3CCN(C)CC3)c(F)cc3c(=O)c(C(=O)O)cn1c23 [Levofloxacin, levofloxacin] | 1 µg/mL (≈ 2.77 µM) | – | – | 1.1 µg/mL (≈ 3.04 µM) | –
8 | NC[C@H]1O[C@H](O[C@H]2[C@H](O)[C@@H](O[C@H]3O[C@H](CO)[C@@H](O)[C@H](N)[C@H]3O)[C@H](N)C[C@@H]2N)[C@H](N)C[C@@H]1O [Tobramycin, tobramycin] | 175 µg/mL (≈ 374 µM) | Low | FALSE | – | –
9 | O=c1cc[nH]c(=O)[nH]1 [URA] | – | – | TRUE | – | Survive (real survival outcome) [4]: FALSE; Survive (real survival outcome) [8]: TRUE
10 | CN(C)[C@@H]1C(O)=C(C(N)=O)C(=O)[C@@]2(O)C(O)=C3C(=O)c4c(O)cccc4[C@@](C)(O)[C@H]3C[C@@H]12 [Tetracycline, tetracycline] | 8 µg/mL (≈ 18 µM) | – | – | 22 µg/mL (≈ 49.5 µM) | –
11 | cotrimoxazole | – | Low | FALSE | – | 1x MIC for T4 [1]: 6.5 µg/mL
12 | CC(C)[C@H](N)C(=O)O [VAL] | – | – | TRUE | – | Survive (real survival outcome) [4]: FALSE; Survive (real survival outcome) [8]: TRUE
13 | CO/N=C(\C(=O)N[C@@H]1C(=O)N2C(C(=O)[O-])=C(C[N+]3(C)CCCC3)CS[C@H]12)c1csc(N)n1 [Cefepime, cefepime] | 0.8 µg/mL (≈ 1.66 µM) | Low | – | 2.2 µg/mL (≈ 4.58 µM) | Fitness [5]: Low, and High; Survive (real survival outcome) ([5]; Concentration H (high)): FALSE; Survive (real survival outcome) ([5]; Concentration L (low)): TRUE; Survive (real survival outcome) ([2]; Concentration L (low)): FALSE
14 | CCCCCCCCCC(=O)N[C@@H](Cc1c[nH]c2ccccc12)C(=O)N[C@H](CC(N)=O)C(=O)N[C@@H](CC(=O)O)C(=O)N[C@@H]1C(=O)NCC(=O)N[C@@H](CCCN)C(=O)N[C@@H](CC(=O)O)C(=O)N[C@H](C)C(=O)N[C@@H](CC(=O)O)C(=O)NCC(=O)N[C@H](CO)C(=O)N[C@@H]([C@H](C)CC(=O)O)C(=O)N[C@@H](CC(=O)c2ccccc2N)C(=O)O[C@@H]1C [Daptomycin, daptomycin] | 35 µg/mL (≈ 21.6 µM) | Low | – | 35 µg/mL (≈ 21.6 µM) | Fitness [5]: Low; Survive (real survival outcome) ([5]; Concentration L (low)): FALSE; Survive (real survival outcome) ([2]; Concentration L (low)): FALSE
15 | NC[C@H]1O[C@H](O[C@H]2[C@H](O)[C@@H](O[C@H]3O[C@H](CO)[C@@H](O)[C@H](N)[C@H]3O)[C@H](N)C[C@@H]2N)[C@H](O)[C@@H](O)[C@@H]1O [Kanamycin, kanamycin] | 90 µg/mL (≈ 186 µM) | – | – | 90 µg/mL (≈ 186 µM) | –
16 | CC1(C)S[C@@H]2[C@H](NC(=O)[C@H](N)c3ccc(O)cc3)C(=O)N2[C@H]1C(=O)O [Amoxicillin, amoxicillin] | 0.12 µg/mL (≈ 0.328 µM) | Low | FALSE | – | –
17 | C[C@@H](O)[C@H]1C(=O)N2C(C(=O)O)=C(SCCN=CN)C[C@H]12 [Imipenem, imipenem] | 0.03 µg/mL (≈ 0.1 µM) | – | – | – | –
18 | penicillin | – | Low | – | – | 1x MIC for T4 [1]: 0.03 µg/mL; 1x MIC for 19F ([3]; S. pneumoniae 19F, lowest concentration that abolishes bacterial growth, 16 hours, 37° C.): 2.25 µg/mL; Fitness [5]: High; Survive (real survival outcome) ([5]; Concentration L (low)): TRUE; Survive (real survival outcome) ([2]; Concentration L (low)): FALSE; Fitness [6]: High; Survive (real survival outcome) ([7]; Concentration H (high)): TRUE; Survive (real survival outcome) ([7]; Concentration L (low)): TRUE
